Results as given in PMC9995496, “A screen for MeCP2-TBL1 interaction inhibitors using a luminescence-based assay” (Scientific Reports, 2023).
Structures can show the parent of a compound that is named as a salt.

tested on: PRKACA-PRKAR2A interaction (SmBiT-PRKACA / LgBiT-PRKAR2A), protein kinase A; parameters: NanoLuc complementation counter-screen in cell extract, PRKACA with PRKAR2A, loss of luminescence, detects NanoLuc interference; conditions: counter-screen for NanoLuc interference, 0.5 h, 20 µM, inhibitor, Inh (PKA)

Row | Structure (SMILES) | Inh (PKA)
1 | CN(c1ncccc1CNc1nc(Nc2ccc3c(c2)CC(=O)N3)ncc1C(F)(F)F)S(C)(=O)=O [UM0141980:01, PF-562271] | 55.16%
2 | CN(c1ncccc1CNc1nc(Nc2ccc3c(c2)CC(=O)N3)ncc1C(F)(F)F)S(C)(=O)=O [UM0141986:01, PF-00562271] | 56.79%
3 | c1ccc2c(-c3cnn4cc(-c5ccc(N6CCNCC6)cc5)cnc34)ccnc2c1 [UM0141989:01, LDN-193189] | 1.838%
4 | COc1cc(Nc2ncc(F)c(Nc3ccc4c(n3)N(COP(=O)(O)O)C(=O)C(C)(C)O4)n2)cc(OC)c1OC [UM0141996:01, R788 disodium] | 11.53%
5 | CN(c1ncccc1CNc1nc(Nc2ccc3c(c2)CC(=O)N3)ncc1C(F)(F)F)S(C)(=O)=O [UM0142004:01, PF-562271 HCl] | 48.82%

The remaining lines, values ahead:

Row | Inh (PKA) | Structure (SMILES)
6 | 2.198% | CCOC(=O)[C@@H](N)CCC(=O)N[C@@H](CSCc1ccccc1)C(=O)N[C@@H](C(=O)OCC)c1ccccc1 [UM0141959:01, Ezatiostat]
7 | 11.32% | CC(=O)c1c(C)c2cnc(Nc3ccc(N4CCNCC4)cn3)nc2n(C2CCCC2)c1=O [UM0141983:01, PD 0332991 (Palbociclib) HCl]
8 | 9.751% | CC(=O)c1c(C)c2cnc(Nc3ccc(N4CCNCC4)cn3)nc2n(C2CCCC2)c1=O [UM0141999:01, Palbociclib (PD0332991) Isethionate]

same assay, conditions: counter-screen for NanoLuc interference; 0.5 h, 20 µM; inhibitor

Row | Structure (SMILES) | Inh (PKA)
9 | COc1ccc(CCC(=O)Nc2nc3ccc(Cl)cc3s2)cc1OC [UM0141953:01, KY 02111] | 9.326%
10 | COc1ccc(-c2ccc3c(N4CCOC[C@@H]4C)nc(N4CCOC[C@@H]4C)nc3n2)cc1CO [UM0141954:01, AZD8055] | 6.662%
11 | CC(C)(C)n1nc(-c2ccc(Cl)cc2)c2c(N)ncnc21 [UM0141956:01, PP 2 (AG 1879)] | 33.15%
12 | N#Cc1c(Oc2ccc(F)c(NC(=O)Cc3cccc(C(F)(F)F)c3)c2)ccc2nc(NC(=O)C3CC3)sc12 [UM0141960:01, TAK-632] | 4.577%
13 | CC(=O)[C@]1(N)Cc2c(O)c3c(c(O)c2[C@@H](O[C@H]2C[C@H](O)[C@H](O)CO2)C1)C(=O)c1ccccc1C3=O [UM0141961:01, Amrubicin] | 25.46%
14 | c1ccc2c(Oc3nc(Nc4ccc(N5CCOCC5)cc4)c4ncn(C5CCCCC5)c4n3)cccc2c1 [UM0141962:01, Purmorphamine] | 11.44%
15 | Cc1ccc2c(=O)c3cccc(CC(=O)O)c3oc2c1C [UM0141964:01, DMXAA (Vadimezan)] | 2.691%
16 | CNC(=O)c1cc(Oc2ccc(NC(=O)c3cccc(C(F)(F)F)c3)cc2)ccn1 [UM0141965:01, SKLB610] | 8.796%
17 | FC(F)c1nc2ccccc2n1-c1nc(N2CCOCC2)nc(N2CCOCC2)n1 [UM0141969:01, ZSTK474] | 3.548%
18 | NC(=O)c1ccc(-c2nc(-c3ccccn3)c(-c3ccc4c(c3)OCO4)[nH]2)cc1 [UM0141970:01, SB 431542] | 22.36%
19 | CCN(CC)CCNC(=O)c1c(C)[nH]c(/C=C2\C(=O)Nc3ccc(F)cc32)c1C [UM0141973:01, Sunitinib malate] | 55.62%
20 | Cc1ccc(NC(=O)Nc2cc(C(F)(F)F)ccc2F)cc1Nc1ccc2c(c1)NC(=O)/C2=C\c1ccc[nH]1 [UM0141977:01, GNF-5837] | 11.58%
21 | CCC(=O)N1CCN(c2ccc(-n3c(=O)ccc4cnc5ccc(-c6cnc7ccccc7c6)cc5c43)cc2C(F)(F)F)CC1 [UM0141981:01, Torin 1] | 8.063%
22 | Cn1c(Nc2ccc(C(F)(F)F)cc2)nc2cc(Oc3ccnc(-c4ncc(C(F)(F)F)[nH]4)c3)ccc21 [UM0141982:01, RAF265] | 1.298%
23 | CCC[C@H](NC(=O)/C(C#N)=C/c1cccc(Br)n1)c1ccccc1 [UM0141988:01, WP1130] | 8.904%
24 | O=C1NC(=O)[C@@H](c2cn3c4c(cccc24)CCC3)[C@@H]1c1c[nH]c2ccccc12 [UM0141990:01, Tivantinib (ARQ 197)] | 34.28%
25 | Cc1ncc(-c2ccnc(Nc3ccc(S(C)(=O)=O)cc3)n2)n1C(C)C [UM0141991:01, AZD-5438] | 13.33%
26 | Nc1nc(Nc2ccc3c(c2)CCC(N2CCCC2)CC3)nn1-c1cc2c(nn1)-c1ccccc1CCC2 (stereo not drawn) [UM0141994:01, R428] | 28.03%
27 | O=C(O)c1ccc2c(c1)nc(Nc1cccc(Cl)c1)c1ccncc12 [UM0141995:01, CX-4945 (Silmitasertib)] | 36.81%
28 | Cc1ccc([C@@H]2O[C@H](CO)[C@@H](O)[C@H](O)[C@H]2O)cc1Cc1ccc(-c2ccc(F)cc2)s1 [UM0141997:01, Canagliflozin] | 13.33%
29 | C[C@]1(O)C[C@@H](c2nc(-c3ccc4ccc(-c5ccccc5)nc4c3)c3c(N)nccn32)C1 [UM0141998:01, Linsitinib] | 15.97%

More lines, now with the values ahead:

Row | Inh (PKA) | Structure (SMILES)
30 | 37.99% | O=C(NCCCNc1nc(Nc2cccc(NC(=O)N3CCCC3)c2)ncc1I)c1cccs1 [UM0141957:01, BX795]
31 | 20.99% | O=C(Nc1ccc(CN2CCOCC2)cc1)c1ccc(-c2cccc(Cl)c2)o1 [UM0141958:01, CID 2011756]
32 | 3.147% | CCCC(=O)Nc1cccc(NC(=O)c2ccccc2Br)c1 [UM0141963:01, ML161]
33 | 0.4442% | CCO[C@@H]1OC(=O)C[C@@H]1NC(=O)[C@@H]1CCCN1C(=O)[C@@H](NC(=O)c1ccc(N)c(Cl)c1)C(C)(C)C [UM0141966:01, VX-765]
34 | -0.4464% | CCCNC(=O)[C@H]1O[C@@H]1C(=O)N[C@H](C(=O)N1CCC[C@H]1C(=O)OC)[C@@H](C)CC [UM0141967:01, CA-074 Me]
35 | 23% | COc1cc(N2CCC(N3CCN(C)CC3)CC2)ccc1Nc1ncc(Cl)c(Nc2ccccc2S(=O)(=O)C(C)C)n1 [UM0141971:01, TAE684 (NVP-TAE684)]
36 | 17.71% | COC(=O)c1ccc2c(c1)NC(=O)/C2=C(\Nc1ccc(N(C)C(=O)CN2CCN(C)CC2)cc1)c1ccccc1 [UM0141972:01, Nintedanib (BIBF 1120)]
37 | 9.562% | Cc1cc(C)nc(NS(=O)(=O)c2ccc(NC(=S)NC(=O)COc3ccc(Br)cc3Cl)cc2)n1 [UM0141974:01, ZCL278]
38 | 9.354% | CN(C)CCCCC(=O)Nc1ccc(NC(=S)NC(=O)c2ccc(C(C)(C)C)cc2)cc1 [UM0141976:01, Tenovin-6]
39 | 5.099% | CNC(=O)c1ccc(C)c(-n2c(C)cc(OCc3ccc(F)cc3F)c(Br)c2=O)c1 [UM0141978:01, PH-797804]
40 | 10.53% | COc1cc2ncnc(Nc3ccc(F)c(Cl)c3)c2cc1NC(=O)/C=C/CN1CCCCC1 [UM0141985:01, Dacomitinib (PF299804, PF299)]
41 | 9.342% | CCOc1cc2ncc(C#N)c(Nc3ccc(OCc4ccccn4)c(Cl)c3)c2cc1NC(=O)/C=C/CN(C)C [UM0141987:01, Neratinib (HKI-272)]
42 | 11.01% | Cc1cc(Nc2ncc(Cl)c(Nc3ccccc3S(=O)(=O)C(C)C)n2)c(OC(C)C)cc1C1CCNCC1 [UM0141993:01, LDK378]
43 | 8.664% | C[C@@H]1CN(CC(=O)Nc2ccc3c(c2)Cc2cccc(-c4cc(=O)cc(N5CCOCC5)o4)c2S3)C[C@H](C)O1 [UM0142000:01, KU-60019]
44 | 4.891% | Cc1cnc(CNC(=O)c2c(=O)c3ccc(N4CCCN(C)CC4)nc3n3c2sc2ccccc23)cn1 [UM0142001:01, CX-5461]
45 | 1.866% | Cc1ccc(S(=O)(=O)OCC(=O)Nc2ccc(C(=O)O)c(O)c2)cc1 [UM0142002:01, NSC 74859]
